The text below walks through data of EP4786459A1, “BENZENE RING-CONTAINING COMPOUND HAVING ANALGESIC EFFECT, PREPARATION METHOD THEREFOR, AND USE THEREOF” (West China Hospital, Sichuan University, priority 2023, dated 2025).

A short description of series [1]: Loss of tail withdrawal reflex (LOTWR) in rats, single intravenous injection, dose escalation: potent analgesic effect and severe adverse reactions. The series is classed as in vivo, SD rats. The following applies: rat, in vivo, single intravenous injection, minimum dose resulting in serious adverse reactions / minimum effective dose, class symbol, read-out: The safety therapeutic index. As to the method: (§1) Using the loss of tail withdrawal reflex (LOTWR) in rats as an indicator, the potent analgesic effect of the compounds according to the present invention was evaluated.
(§2) 1.1 Experimental animals: Adult male SD rats weighing between 220-300 g were selected for the experiment. The rats were housed in sawdust-bedded cages with a temperature of 25±1°C, humidity ranging from 40% to 60%, and a 12-hour light/12-hour dark cycle. Each cage contained no more than 5 rats, with free access to water and food.
(§3) • (1) The compound of the present invention, along with the positive control drug remifentanil and the negative control (vehicle), were administered in fixed volumes. A dose escalation approach was employed to determine the minimum effective dose at which the compound of the present invention produces potent analgesic effects, as well as the minimum dose at which severe adverse reactions first appear. • (2) LOTWR lasting for 30 seconds was used as the criterion for generating potent analgesic effects. During the experiment, drugs were administered via the tail vein of rats, with a dosage volume of 0.6 mL per rat and a dosage rate of 0.02 mL/s. Subsequently, an alligator clip was applied at a distance of 1 cm from the base of the rat's tail, clamping once longitudinally and once transversely before being left in place. Meanwhile, the distal end of the alligator clip was continuously oscillated (30 times/min) to continuously generate stimulation. […] When all results were "no LOTWR" after 10 minutes of testing (5 trials), the test was stopped and recorded as "ineffective." • (3) All compounds would undergo a dose escalation for efficacy evaluation, starting from 1 mg/kg (due to the high potency of remifentanil, the lowest dose was set at 1 µg/kg), followed by 5 mg/kg, 10 mg/kg, 20 mg/kg, and so on (increasing by 20 mg/kg increments after 20 mg/kg). The dose escalation would be stopped when rats show signs of death, and the lowest effective dose and the lowest dose at which severe adverse reactions occur would be recorded throughout the process. In this study, severe adverse reactions are defined as apnea, generalized tonic rigidity, convulsions, opisthotonus, seizures, etc.
(§4) 1.3 Evaluation indicators: the minimum effective dose; the minimum dose resulting in serious adverse reactions; the safety therapeutic index = "the minimum dose resulting in serious adverse reactions" / "the minimum effective dose".

Series [2] concerns rats. The description is as above. It counts as in vivo, SD rats. The following applies: Rattus norvegicus, single intravenous injection (tail vein), LOTWR lasting for 30 seconds as criterion, class symbol, read-out: The minimum effective dose. As to the method:
as §1, §2, §3, §4

On to `CCCCc1ccc(CNC(=O)NCc2ccsc2)c(N(C)C)c1` [Example 53], for which the selectivity ratio in series [1] was at most 2. In addition, the minimal effective dose in series [2] was at most 10 mg/kg.
Taken in the same sequence, the figures for `Cc1ccc(CNC(=O)NCc2ccsc2)c(N2CCCCC2)c1` [Example 54] were at most 2 and at most 10 mg/kg.
Taken in the same sequence, the figures for `CCN(CC)c1cc(C)ccc1CNC(=O)NCc1ccsc1` [Example 55] were at most 2 and at most 10 mg/kg.
For `CN(C)c1cc(CCNC(=O)C2COC2)ccc1CNC(=O)NCc1ccsc1` [Example 56], the selectivity ratio in series [1] is at most 2. Further, the minimal effective dose in series [2] was at most 10 mg/kg.
Turning to `CNc1cc(C)ccc1CNC(=O)NCc1ccsc1` [Example 57], in series [1], the selectivity ratio is at most 2. Further, in series [2], the minimal effective dose lay within 10 to 20 mg/kg.
Taken in the same sequence, the figures for `Cc1ccc(CNC(=O)NCc2ncc[nH]2)cc1N(C)C` [Example 58] were at most 2 and above 30 mg/kg.
Taken in the same sequence, the figures for `Cc1ccc(NC(=O)NCc2ncc[nH]2)c(N(C)C)c1` [Example 59] were 2 to 4 and 10 to 20 mg/kg.
Turning to `Cc1ccc(NC(=O)NCc2ccns2)c(N(C)C)c1` [Example 60], in series [1], the selectivity ratio is at most 2. Besides, in series [2], the minimal effective dose fell in the range of 10 to 20 mg/kg.
Taken in the same sequence, the figures for `Cc1ccc(CNC(=O)Nc2ccns2)c(N(C)C)c1` [Example 61] were at most 2 and at most 10 mg/kg.
Taken in the same sequence, the figures for `Cc1ccc(CNC(=O)NCc2ccccc2)c(N(C)C)c1` [Example 62] were 2 to 4 and 10 to 20 mg/kg.
For the compound `Cc1cc(C)cc(CNC(=O)NCc2ccc(C)cc2N(C)C)c1` [Example 63], the selectivity ratio in series [1] was at most 2. Besides, the minimal effective dose in series [2] is at most 10 mg/kg.
Taken in the same sequence, the figures for `Cc1ccc(CNC(=O)NCc2cnc[nH]2)c(N(C)C)c1` [Example 64] were above 4 and at most 10 mg/kg.
Take `Cc1ccc(CNC(=O)NCc2ccnn2C)c(N(C)C)c1` [Example 65]: the selectivity ratio in series [1] is above 4. In addition, the minimal effective dose in series [2] is at most 10 mg/kg.
Taken in the same sequence, the figures for `Cc1ccc(CNC(=S)NCc2ccns2)c(N(C)C)c1` [Example 66] were 2 to 4 and at most 10 mg/kg.
Taken in the same sequence, the figures for `Cc1ccc(CNC(=S)NCc2cccs2)c(N(C)C)c1` [Example 67] were above 4 and at most 10 mg/kg.
Taken in the same sequence, the figures for `Cc1ccc(CNC(=S)NCc2ccns2)cc1N(C)C` [Example 68] were 2 to 4 and at most 10 mg/kg.
With `Cc1ccc(CNC(=S)NCc2ccco2)c(N(C)C)c1` [Example 69], the selectivity ratio in series [1] lay in the range of 2 to 4. The minimal effective dose in series [2] was at most 10 mg/kg.
For the compound `Cc1ccc(CNC(=S)NCc2ccoc2)c(N(C)C)c1` [Example 70], in series [1], the selectivity ratio was at most 2. For the same compound, the minimal effective dose in series [2] lay within 10 to 20 mg/kg.
For `Cc1ccc(CNC(=S)NCc2ccco2)cc1N(C)C` [Example 71], the selectivity ratio in series [1] is at most 2. Also, in series [2], the minimal effective dose was at most 10 mg/kg.
Consider `Cc1ccc(CNC(=S)NCc2ccoc2)cc1N(C)C` [Example 72], for which the selectivity ratio in series [1] lay within 2 to 4. The minimal effective dose in series [2] was at most 10 mg/kg.
Taken in the same sequence, the figures for `Cc1ccc(CNC(=S)NCc2ncc[nH]2)c(N(C)C)c1` [Example 74] were at most 2 and above 30 mg/kg.
With `Cc1ccc(CNC(=N)NCc2ncc[nH]2)c(N(C)C)c1` [Example 75], the selectivity ratio in series [1] lay in the range of 2 to 4. Further, the minimal effective dose in series [2] is at most 10 mg/kg.
Taken in the same sequence, the figures for `CCCc1ccc(CNC(=S)NCc2cccs2)c(N(C)C)c1` [Example 76] were above 4 and at most 10 mg/kg.
Take `CCCc1ccc(CNC(=S)NCc2cccs2)cc1N(C)C` [Example 77]: in series [1], the selectivity ratio lay within 2 to 4. In addition, the minimal effective dose in series [2] is at most 10 mg/kg.
Taken in the same sequence, the figures for `CN(C)c1ccc(CNC(=O)NCc2cccs2)cc1` [Example 78] were at most 2 and 10 to 20 mg/kg.
`Cc1ccc(NC(=S)Nc2ccsc2)cc1N(C)C` [Example 79]: in series [1], the selectivity ratio was at most 2. Besides, the minimal effective dose in series [2] was 20 to 30 mg/kg.
Turning to `Cc1ccc(CCNC(=S)Nc2cccs2)c(N(C)C)c1` [Example 81], the selectivity ratio in series [1] lay in the range of 2 to 4. In series [2], the minimal effective dose is at most 10 mg/kg.
For `[2H]C([2H])([2H])N(c1cc(C)ccc1CNC(=S)NCc1cccs1)C([2H])([2H])[2H]` [Example 82], the selectivity ratio in series [1] is 2 to 4. The minimal effective dose in series [2] is at most 10 mg/kg.
Taken in the same sequence, the figures for `Cc1ccc(NC(=S)Nc2cccs2)c(N(C)C)c1` [Example 83] were above 4 and at most 10 mg/kg.
Regarding `Cc1ccc(CNC(=S)NCc2ccccc2)c(N(C)C)c1` [Example 85], the selectivity ratio in series [1] was at most 2. The minimal effective dose in series [2] is at most 10 mg/kg.
Taken in the same sequence, the figures for `Cc1ccc(CNC(=S)NCc2ccccc2)cc1N(C)C` [Example 86] were 2 to 4 and at most 10 mg/kg.
Taken in the same sequence, the figures for `Cc1ccc(CNC(=S)NCc2ccnn2C)c(N(C)C)c1` [Example 87] were above 4 and at most 10 mg/kg.
Taken in the same sequence, the figures for `CN(C)c1cc(C(F)(F)F)ccc1CNC(=S)NCc1cccs1` [Example 88] were above 4 and at most 10 mg/kg.
Regarding `Cc1ccc(CNC(=S)NCc2cccs2)c(N2CCOCC2)c1` [Example 89], the selectivity ratio in series [1] is 2 to 4. For the same compound, in series [2], the minimal effective dose was at most 10 mg/kg.
Taken in the same sequence, the figures for `Cc1ccc(CNC(=N)NCc2ccns2)c(N(C)C)c1` [Example 90] were 2 to 4 and at most 10 mg/kg.
Taken in the same sequence, the figures for `Cc1ccc(CNC(=N)NCc2ccno2)c(N(C)C)c1` [Example 92] were 2 to 4 and at most 10 mg/kg.
For the compound `Cc1ccc(CNC(=S)NCc2cc3ccccc3s2)c(N(C)C)c1` [Example 93], the selectivity ratio in series [1] was at most 2. Further, the minimal effective dose in series [2] was at most 10 mg/kg.
As to `Cc1ccc(CNC(=S)NCc2ccc3ccsc3c2)c(N(C)C)c1` [Example 94], the selectivity ratio in series [1] was above 4. Further, in series [2], the minimal effective dose was at most 10 mg/kg.
Taken in the same sequence, the figures for `CN(C)c1cccc(NC(=N)Nc2cccs2)c1` [Example 95] were at most 2 and at most 10 mg/kg.
Taken in the same sequence, the figures for `CN(C)c1cccc(NC(=N)Nc2ccsc2)c1` [Example 96] were at most 2 and at most 10 mg/kg.
In the case of `CN(C)c1ccccc1NC(=O)Nc1ccns1` [Example 97], in series [1], the selectivity ratio is at most 2. Moreover, the minimal effective dose in series [2] is above 30 mg/kg.
Taken in the same sequence, the figures for `Cc1ccc(CSC(=S)SCc2cccs2)c(N(C)C)c1` [Example 98] were at most 2 and above 30 mg/kg.
Turning to `Cc1ccc(CSC(=O)OCc2ccsc2)c(N(C)C)c1` [Example 99], the selectivity ratio in series [1] was at most 2. Also, the minimal effective dose in series [2] was above 30 mg/kg.
`Cc1ccc(COC(=S)SCc2ccsc2)c(N(C)C)c1` [Example 100]: in series [1], the selectivity ratio is at most 2. Further, the minimal effective dose in series [2] was above 30 mg/kg.
Taken in the same sequence, the figures for `Cc1ccc(CSC(=O)SCc2cccs2)c(N(C)C)c1` [Example 101] were 2 to 4 and above 30 mg/kg.
As for `Cc1ccc(CNC(=O)Nc2ncc[nH]2)c(N(C)C)c1` [Example 103], the selectivity ratio in series [1] was above 4. Also, in series [2], the minimal effective dose is at most 10 mg/kg.
Taken in the same sequence, the figures for `Cc1ccc(CNC(=O)Nc2ccn[nH]2)c(N(C)C)c1` [Example 104] were at most 2 and above 30 mg/kg.
As for `CN(C)c1cc(CNC(=O)NCc2ccco2)ccc1C(F)(F)F` [Example 105], in series [1], the selectivity ratio is above 4. In addition, the minimal effective dose in series [2] was at most 10 mg/kg.
As to `Cc1ccc(CNC(=S)Nc2cncs2)c(N(C)C)c1` [Example 106], the selectivity ratio in series [1] is above 4. Further, the minimal effective dose in series [2] is at most 10 mg/kg.
Taken in the same sequence, the figures for `Cc1ccc(CNC(=S)NCc2cc(C)nn2C)c(N(C)C)c1` [Example 107] were 2 to 4 and 10 to 20 mg/kg.
Taken in the same sequence, the figures for `Cc1ccc(CNC(=N)NCc2cc(C)nn2C)c(N(C)C)c1` [Example 108] were above 4 and at most 10 mg/kg.
For the compound `Cc1ccc(CNC(=N)NCc2ccnn2C)cc1N(C)C` [Example 109], the selectivity ratio in series [1] is at most 2. Also, the minimal effective dose in series [2] was at most 10 mg/kg.
As for `Cc1cc(CNC(=N)NCc2ccc(C)c(N(C)C)c2)n(C)n1` [Example 110], in series [1], the selectivity ratio was at most 2. Moreover, the minimal effective dose in series [2] was at most 10 mg/kg.
